The values below come from ChEMBL document CHEMBL1201862, “PubChem BioAssay data set” (2004).

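Exposure lasted 48 hours, with cells grown in 96-well plates and compounds tested at five concentrations. GI50: concentration for 50% inhibition of growth.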 The source made the active and inactive calls. Cut-off read from the data, not from the text of the source: active = GI50 up to about 1.1 µM and inactive = higher.

Some test systems named below: LOX IMVI; A498; SNB-19; RPMI-8226; MCF7; MDA-MB-435; DU-145; SF-539; UACC-257; MDA-N; COLO 205; IGROV-1; HL-60; HT-29; K562; SF-295; 786-0; UACC-62; NCI-H460; PC-3.
What all share (experiment): growth of human tumour cells (NCI), 48 h

Turning to `COc1cc2cc(C(=O)N3CC(COS(C)(=O)=O)c4ccc(O)cc43)[nH]c2c(OC)c1OC` (stereo not given), the GI50 in the assay on LOX IMVI is < 0.0001 µM (active); in the assay on A498, < 0.01 µM (active); in the assay on SNB-19 it was < 0.0001 µM (active); with RPMI-8226, < 0.0001 µM (active); in the assay on MCF7, < 0.0001 µM (active); with MDA-MB-435, < 0.0001 µM (active). For the same compound, the GI50 with DU-145 is < 0.0001 µM (active); in the assay with SF-539 it was < 0.0001 µM (active); in the assay with UACC-257, 0.000537 µM (active); with MDA-N, < 0.01 µM (active); in the assay on COLO 205 it was 0.000432 µM (active); in the assay on IGROV-1 it was 0.000158 µM (active). The GI50 with HL-60, in the assay with HT-29, with K562, in the assay with SF-295, in the assay on 786-0 and in the assay with UACC-62 was < 0.0001 µM (active) throughout.
On to `SCc1ccc(-c2ccc(CS)cc2)cc1`, for which the GI50 in the assay on LOX IMVI was 4 µM (inactive); in the assay with A498 it was 36.5 µM (inactive); in the assay with SNB-19, 18.3 µM (inactive); with RPMI-8226 it was 8.77 µM (inactive); in the assay on NCI-H460, 10.4 µM (inactive); with MCF7 it was 5.32 µM (inactive). Further, the GI50 is 5.74 µM (inactive) with MDA-MB-435; > 10 µM (inactive) with DU-145; 18 µM (inactive) in the assay on SF-539; 21.1 µM (inactive) with UACC-257; 18 µM (inactive) in the assay with COLO 205; 17.4 µM (inactive) with PC-3. The GI50 is 13.5 µM (inactive) in the assay on IGROV-1; 3.25 µM (inactive) in the assay on HL-60; 26.9 µM (inactive) in the assay on HT-29; 4.07 µM (inactive) with K562; 8.97 µM (inactive) in the assay on SF-295; 23.2 µM (inactive) with 786-0. Besides, in the assay with UACC-62, the GI50 is 14.9 µM (inactive).
Turning to `CC1(C)CC(=O)C=C(NC(=O)c2ccccc2)C1`, the GI50 in the assay with LOX IMVI, in the assay on A498, in the assay on SNB-19, in the assay with RPMI-8226, in the assay on NCI-H460 and in the assay on SF-539 was > 100 µM (inactive) throughout. Moreover, the GI50 in the assay on UACC-257, with COLO 205, in the assay on IGROV-1, in the assay on HL-60, in the assay with HT-29 and in the assay with K562 was > 100 µM (inactive) in each case. Further, the GI50 in the assay on SF-295, in the assay with 786-0 and in the assay on UACC-62 was > 100 µM (inactive) in each case.
`NC(=O)C(=CN1CC(=O)NC1=S)C(N)=O`: the GI50 in the assay on LOX IMVI, in the assay on A498, in the assay on SNB-19, in the assay on NCI-H460, in the assay with MCF7 and with MDA-MB-435 was > 100 µM (inactive) in each case. For the same compound, the GI50 in the assay on DU-145, in the assay on SF-539, in the assay on UACC-257, in the assay with MDA-N, in the assay on COLO 205 and in the assay on IGROV-1 was > 100 µM (inactive) in each case. In addition, the GI50 in the assay with HL-60, in the assay on HT-29, in the assay with SF-295, with 786-0 and in the assay on UACC-62 was > 100 µM (inactive) in each case.
For `COC(=O)C(=O)C(C(=O)OC)C(=O)C(=O)Nc1c(Cl)cc([N+](=O)[O-])cc1Cl` (stereo not given), the GI50 with LOX IMVI was 83 µM (inactive); in the assay on A498 it was > 100 µM (inactive); in the assay with SNB-19 it was > 100 µM (inactive); in the assay with RPMI-8226, > 100 µM (inactive); with NCI-H460, > 100 µM (inactive); in the assay with MCF7 it was > 100 µM (inactive). Also, the GI50 is > 100 µM (inactive) in the assay on MDA-MB-435; > 100 µM (inactive) with SF-539; > 100 µM (inactive) in the assay on UACC-257; > 100 µM (inactive) in the assay on MDA-N; > 100 µM (inactive) with PC-3; 44.9 µM (inactive) in the assay with IGROV-1. Besides, the GI50 with HL-60 is > 100 µM (inactive); with HT-29, > 100 µM (inactive); in the assay on K562 it was > 100 µM (inactive); with SF-295 it was 64 µM (inactive); with 786-0, 40.7 µM (inactive); in the assay with UACC-62, > 100 µM (inactive).
With `O=C(O)c1nc2cc(C(F)(F)F)ccc2nc1Nc1ccc(F)cc1`, the GI50 is 18.7 µM (inactive) in the assay with LOX IMVI; 14.3 µM (inactive) in the assay with A498; 16.7 µM (inactive) in the assay with SNB-19; 4.17 µM (inactive) in the assay on RPMI-8226; 22.2 µM (inactive) in the assay with MCF7; 7.71 µM (inactive) with MDA-MB-435. The GI50 with SF-539 is 17.5 µM (inactive); with UACC-257, 20.6 µM (inactive); with MDA-N, 22.5 µM (inactive); in the assay on COLO 205, 15.9 µM (inactive); in the assay on PC-3 it was 10.8 µM (inactive); in the assay with IGROV-1 it was 18.7 µM (inactive). Besides, the GI50 is 23 µM (inactive) in the assay with HT-29; 13.5 µM (inactive) with K562; 13.4 µM (inactive) in the assay on SF-295; 22.4 µM (inactive) in the assay on 786-0; 12.6 µM (inactive) with UACC-62.
`COC(=O)C(=O)C(C(=O)C(=O)Nc1nnc(S)[nH]1)c1nc2ccc([N+](=O)[O-])cc2nc1O` (stereo not given): the GI50 with LOX IMVI was > 100 µM (inactive); in the assay on A498, > 100 µM (inactive); with SNB-19, 44.7 µM (inactive); with RPMI-8226 it was > 100 µM (inactive); with NCI-H460, > 100 µM (inactive); in the assay on MCF7, 92.7 µM (inactive). Moreover, the GI50 with MDA-MB-435 was > 100 µM (inactive); in the assay with SF-539, > 100 µM (inactive); with UACC-257 it was > 100 µM (inactive); in the assay on MDA-N it was > 100 µM (inactive); in the assay on PC-3 it was > 100 µM (inactive); with IGROV-1, 91.4 µM (inactive). The GI50 in the assay on HL-60 was > 100 µM (inactive); in the assay with HT-29 it was > 100 µM (inactive); in the assay with K562 it was 57.8 µM (inactive); in the assay with SF-295, > 100 µM (inactive); in the assay with 786-0 it was > 100 µM (inactive); with UACC-62 it was > 100 µM (inactive).
As to `COc1ccc2nccc(C3=CCC4CCN(C(=O)c5ccccc5)C3C4)c2c1` (stereo not given), the GI50 with LOX IMVI was > 100 µM (inactive); in the assay with A498, > 100 µM (inactive); with SNB-19, > 100 µM (inactive); with RPMI-8226, 46.1 µM (inactive); in the assay on NCI-H460, > 100 µM (inactive); with SF-539, > 100 µM (inactive). The GI50 was > 100 µM (inactive) in the assay on UACC-257; > 100 µM (inactive) with COLO 205; > 100 µM (inactive) in the assay on IGROV-1; 51.6 µM (inactive) in the assay on HL-60; > 100 µM (inactive) with HT-29; 74.5 µM (inactive) with K562. Besides, the GI50 in the assay on SF-295, in the assay on 786-0 and with UACC-62 was > 100 µM (inactive) throughout.
As to `COc1ccc2[nH]c3c(c2c1)CCN(C)CC3`, the GI50 in the assay with LOX IMVI, with A498, with SNB-19, with RPMI-8226, in the assay with NCI-H460 and in the assay on SF-539 was > 100 µM (inactive) each time. Further, the GI50 is > 100 µM (inactive) in the assay on UACC-257; > 100 µM (inactive) in the assay with COLO 205; > 100 µM (inactive) in the assay on IGROV-1; 71.8 µM (inactive) with HL-60; > 100 µM (inactive) in the assay on HT-29; > 100 µM (inactive) in the assay with K562. Also, the GI50 in the assay on SF-295, in the assay on 786-0 and in the assay on UACC-62 was > 100 µM (inactive) in each case.
For `C/C(CN1C(=O)c2ccccc2C1=O)=N\NS(=O)(=O)c1ccc2ccccc2c1`, the GI50 with LOX IMVI, in the assay with A498, with SNB-19, with RPMI-8226, with NCI-H460 and in the assay with SF-539 was > 100 µM (inactive) in each case. Moreover, the GI50 in the assay on UACC-257, with COLO 205, in the assay with IGROV-1, with HL-60, in the assay on HT-29 and in the assay on K562 was > 100 µM (inactive) in each case. Besides, the GI50 in the assay on SF-295, with 786-0 and in the assay with UACC-62 was > 100 µM (inactive) in each case.
In the case of `C=CC[C@H](C[C@H](C[C@H](C[C@H](C[C@H](C[C@H](C[C@H](C[C@H](C[C@H](C[C@H](CCCCC)OC)OC)OC)OC)OC)OC)OC)OC)OC)OC`, the GI50 in the assay on LOX IMVI was > 100 µM (inactive); in the assay on A498, 85.7 µM (inactive); in the assay with SNB-19 it was 83.2 µM (inactive); in the assay with RPMI-8226, 52.4 µM (inactive); in the assay with NCI-H460, > 100 µM (inactive); in the assay on SF-539, > 100 µM (inactive). Also, the GI50 in the assay on UACC-257 is 70.8 µM (inactive); in the assay on COLO 205 it was > 100 µM (inactive); with IGROV-1 it was > 100 µM (inactive); in the assay on HL-60, 52.5 µM (inactive); in the assay on HT-29, > 100 µM (inactive); in the assay with K562 it was 70.3 µM (inactive). The GI50 in the assay on SF-295, in the assay with 786-0 and with UACC-62 was > 100 µM (inactive) each time.
On to `Cc1ccc(S(=O)(=O)NC(=O)Nc2c(S(N)(=O)=O)cc(S(N)(=O)=O)c(Cl)c2Cl)cc1`, for which the GI50 with LOX IMVI, with A498, in the assay on SNB-19, in the assay with RPMI-8226, in the assay with NCI-H460 and with MCF7 was > 100 µM (inactive) each time. The GI50 in the assay with MDA-MB-435, with SF-539, in the assay on UACC-257, in the assay with MDA-N, in the assay on PC-3 and in the assay on IGROV-1 was > 100 µM (inactive) each time. Besides, the GI50 in the assay with HL-60, with HT-29, with K562, in the assay on SF-295, in the assay with 786-0 and in the assay on UACC-62 was > 100 µM (inactive) each time.
